Entries after “also recorded” stand apart in the source; their conditions may differ.
Tests used:
[1] = system: ARPE-19 cells; experiment: Cell viability (XTT assay); format: cell-based; details: Homo sapiens, 48 h, read-out: A. Safety IC50 on ARPE-19 cells
Description: ARPE-19 cells were incubated in a 96-well plate with different effectors for 48 hours. Fifty microliters of sodium 3′-[1-phenylaminocarbonyl)-3,4-tetrazolium]-bis(4-methoxy-6-nitro) benzene sulfonic acid hydrate (XTT) reagent was added to each well. The test is based on the cleavage of the yellow tetrazolium salt XTT to form an orange formazan dye by metabolically active cells. This bio-reduction occurs in viable cells only and is associated with NAD(P)H production through glycolysis. Therefore, the amount of formazan dye measured at 490 nm, correlates directly with the number of metabolically active cells reflecting cell proliferation, viability, and cytotoxicity. Each assay was performed in quadruplicate.
(§1) All compounds were evaluated in different experiments. Results are represented as the mean of three independent experiments. A. ARPE-19 cells were treated with dose response of compound for 48 h. Values are reported as IC50 measured with the XTT assay. B and C. ARPE-19 cells were treated with 5 μM (B) or 1 μM (C) compound then with 200 μM H2O2 for 2 h. ROS were analyzed by cytometry. […] As illustrated in FIG. 1A. D. ARPE-19 cells were treated with 2.5 μM compound for 48 h and the level of CXCL1 mRNA was evaluated by qPCR. […] As illustrated in FIG. 1B. E. TIME cells were pre-treated with 2.5 μM compound for 1 h then stimulated with 100 ng/ml CXCL8 for 15 min p-ERK levels were analyzed by immunoblotting. HSP90 served as loading control. […] As illustrated in FIG. 1C.

[2] = system: ROS; experiment: ROS labeling by cytometry after H2O2; format: cell-based; details: for inhibition at 1 µM / inhibition at 5 µM: Homo sapiens, ARPE-19; for inhibition at 1 µM: 1 μM compound then 200 μM H2O2 for 2 h, read-out: C. ROS inhibition 1 μM - ARPE-19 cells; for inhibition at 5 µM: 5 μM compound then 200 μM H2O2 for 2 h, read-out: B. ROS inhibition 5 μM - ARPE-19 cells
Description: ARPE-19 cells were treated with MCK349 30 minutes then with 200 μM H2O2 for 2 h. 10 μM DCF-DA (2′,7′-Dichlorofluorescein diacetate) were added on cell media for 30 min. Cells were rinsed then detached (trypsin) and resuspended in PBS 0.5% BSA and 2 mM EDTA. The cells are analyzed by cytometry (ROS labeled with DCFDA-FITC).
as §1

[3] = system: ERK activation (p-ERK); experiment: p-ERK immunoblotting after CXCL8 stimulation; format: cell-based; details: 2.5 μM compound 1 h then 100 ng/ml CXCL8 for 15 min; read-out: E. p-ERK inhibition - TIME
Description: Cells were lysed in buffer containing 3% SDS, 10% glycerol and 0.825 mM Na2HPO4. 30 to 50 μg of proteins separated on 10% SDS-PAGE, transferred onto a PVDF membrane and then exposed to the appropriate antibodies. Proteins were visualized with the ECL system using horseradish peroxidase-conjugated anti-rabbit or anti-mouse antibodies.
as §1

[4] = system: pro-inflammatory cytokines; experiment: LPS stimulated whole blood, multiplex ELISA; format: cell-based; details: human whole blood, 5 or 10 μM 1 h prior to 10 ng/ml LPS for 18 h
From the text: Human peripheral […] were obtained from healthy donors with informed consent following the Declaration of Helsinki according to recommendations of an independent scientific review board. The project has been validated by The Etablissement Français du Sang, the French national agency for blood collection (protocol 7952NQ). Blood samples were collected using ethylene diamine tetraacetic acid-containing tubes.
Whole blood will be removed from a single donor (K3-EDTA) and diluted 1:5 with RPMI 1640. Within 30 minutes of sampling, blood will be incubated with 5 or 10 μM MCK349 for 1 h prior to 10 ng/ml LPS stimulation for 18 h. Blood is centrifuged to recover plasma and cytokines are analyzed by multiplex ELISA (Meso Scale Discovery).
(§2) Cytokines from plasma (whole blood) or supernatant (ARPE-19 cells) were analyzed by multiplex ELISA. A multiplex ELISA was designed from U-PLEX Biomarker Group 1 (hu) Assays (K15069L-1). The protocol performed follows the instructions of the supplier.

[5] = system: pro-inflammatory, pro-angiogenic and/or pro-fibrotic mRNA markers; experiment: ARPE-19 stimulation to mimic diabetic retinopathy in vitro, mRNA by qPCR; format: cell-based; details: ARPE-19, high glucose + cytokines, 5 or 10 μM
Description: One microgram of total RNA was used for the reverse transcription, using the QuantiTect Reverse Transcription kit (QIAGEN, Hilden, Germany), with blend of oligo (dT) and random primers to prime first-strand synthesis. SYBR master mix plus (Eurogentec) was used for qPCR. The mRNA level was normalized to 36B4 mRNA
(§3) ARPE-19 cells were cultured in hyperglycaemic conditions (D-glucose, 25 mmol/l) for 16 days at 37° C. under 5% CO2 in medium (DMEM/F12) supplemented with 10% FBS and 1% penicillin. On day 16, cells were pre-treated with MCK349. On day 17, cells were washed and treated with MCK349 and cytokines (10 ng/ml IL1ß, 25 ng/ml VEGF and 25 ng/ml TNFα) for 24 h. Cytokines are analyzed by multiplex ELISA (Meso Scale Discovery) on the supernatant. Cells were recovered to analyze the mRNA level of different markers by qPCR.

[6] = system: pro-inflammatory, pro-angiogenic and/or pro-fibrotic cytokines; experiment: ARPE-19 stimulation to mimic diabetic retinopathy in vitro, cytokines by multiplex ELISA; format: cell-based; details: ARPE-19, high glucose + cytokines, 5, 10, or 25 μM
Description: as §3, §2

[7] = system: ocular (retinal) neo-angiogenesis; experiment: Hypoxia-induced retinal neo-angiogenesis in zebrafish; format: in vivo; details: hypoxia 5% oxygen 72 h, 0.25, 0.5, or 1 μM
Description: All animal experiments were approved by the Experimental Animal Ethical Committee. Transgenic zebrafish embryos (fli: EGFP, blood vessels marked in GFP) were raised at 28° C. under standard experimental conditions. Zebrafish embryos at the age of 24 hpf were incubated in aquarium water containing 0.2 mmol/L 1-phenyl-2-thio-urea (PTU, Sigma). At 48-hpf, zebrafish embryos were placed for 72 h in normoxia (Nx) or hypoxia 5% oxygen […], in the presence of treatment. Retinal neo-angiogenesis was analyzed by fluorescent confocal microscope and quantified by ImageJ.

[8] = system: TIME cells; experiment: Vessels formation assay on Matrigel; format: cell-based; details: 5 or 10 μM
Description: 300 μL of Matrigel Matrix were coated in 24-well plates and put 1 h a 37° C. Then Time cells were plated (300 000 cells/well). Plates were then incubated at 37° C., 5% CO2 for 24 hours. Representative images were taken with the Evos XL Core Cell Imaging System at low magnification (4×).

[9] = system: TIME cells; experiment: Endothelial cells proliferation; format: cell-based; details: 72 h
Description: TIME cells were plated in 12-well plates (25 000 cells/well) in 0.5% SVF media and then stimulated with 100 ng/mL CXCL8 or CXCL7 for 72 h. Cell proliferation is assessed by cell count. The results are expressed as % of day 0 relative to the condition tested.

[10] = system: choroidal neovascularization (CNV); experiment: Laser induced choroidal neovascularization and vascular leakage in mice; format: in vivo; details: intravitreal 52 μg/ml (2 μl) four times, Day 9 and 15
Description: Laser photocoagulation (shoot retina with laser beam (50 μm, 0.1 s, and 250~300 mW or any other parameters reasonable) for 4 spots avoiding blood vessels) were performed binocularly on each animal at Day 1 on male C57 mice (8 mice per group).
Vehicle and MCK349 (52 μg/ml) were delivered by binocular intravitreal injection (2 μl) four times in total. Once on Day 1 (right after modeling), Day 4, Day 7 and Day 11. Optical Coherence Tomography (OCT) was performed once on modeling day right after laser photocoagulation and once on Day 9 and Day 15. CNV volume of each lesion will be measured. Fundus Fluorescein Angiography (FFA) was conducted once on Day 9 and Day 15. The angiograms will be graded as follows: Grade 0, no bright hyperfluorescence; Grade 1, hyperfluorescence without leakage; Grade 2a, hyperfluorescence and late leakage; and Grade 2b, bright hyperfluorescence and late leakage beyond treated areas.

Row | Structure (SMILES) | IC50 [1] [µM] | inhibition at 1 µM [2] [%] | inhibition at 5 µM [2] [%] | inhibition at 2.5 µM [3] [%] | pro-inflammatory cytokines induced by LPS stimulation in whole blood [4] | expression (mRNA) of pro-angiogenic and/or pro-inflammatory cytokines in diabetic retinopathy model in vitro [5] | secretion of pro-angiogenic and/or pro-inflammatory cytokines in diabetic retinopathy model in vitro [6] | ocular (retinal) neo-angiogenesis in zebrafish [7] | ocular (retinal) neo-angiogenesis in zebrafish ([7]; listed as MC342) | oxidative stress (ROS) inhibition ([2]; ARPE-19, 1 μM MCK349 then 200 μM H2O2 for 2 h) | vessel formation on matrigel [8] | endothelial cell proliferation induced by CXCL7 ([9]; 100 ng/mL CXCL7, 0.1, 0.2 or 0.5 μM) | endothelial cell proliferation induced by CXCL8 ([9]; 100 ng/mL CXCL8, 0.1, 0.2 or 0.5 μM) | choroidal neovascularization (CNV) [10] | vascular leakage (FFA grade 2b lesions) [10]
1 | Cc1ccc(Nc2nc(N)n(Cc3cccc(Br)c3)n2)cc1 [MCK342, 1-(3-bromobenzyl)-N^3-(4-methylphenyl)-1H-1,2,4-triazole-3,5-diamine] | > 25 | ≥ 50 | ≥ 50 | < 50 | inhibit pro-inflammatory cytokines | inhibit the expression | inhibit the expression (mRNA, FIG. 3) and secretion | inhibit ocular neoangiogenesis | inhibit ocular (retinal) neo-angiogenesis |  |  |  |  |  | 
2 | Nc1nc(Nc2ccc(Cl)c(Cl)c2)nn1Cc1cccc(Br)c1 [MCK349, 1-(3-bromobenzyl)-N^3-(3,4-dichlorophenyl)-1H-1,2,4-triazole-3,5-diamine] | > 25 | ≥ 50 | ≥ 50 | ≥ 50 | inhibit pro-inflammatory cytokines | inhibits pro-inflammatory, pro-angiogenic and/or pro-fibrotic mRNA markers; also recorded: inhibit the expression | inhibits pro-inflammatory, pro-angiogenic and/or pro-fibrotic cytokines; also recorded: inhibit the expression (mRNA, FIG. 3) and secretion | inhibit ocular (retinal) neo-angiogenesis; also recorded: inhibit ocular neoangiogenesis |  | inhibits oxidative stress | inhibiting vessel formation on matrigel | inhibiting endothelial cell proliferation | inhibiting endothelial cell proliferation induced by CXCL8 | inhibits vascular leakage (FIGS. 9A and B) and neovascularization; also recorded: inhibits choroidal neovascularization (CNV) | inhibits choroidal neovascularization (CNV) and vascular leakage
